Earlier results, collected in patent US20260284079A1, “LIPID PRODRUGS OF ALLOPR[…] USES THEREOF” (Seaport Therapeutics, Inc., priority 2023, published 2026).

Experiments:
salivary cortisol levels = details: literature; cited from earlier work
[1] = due to extensive first-pass metabolism; cited from earlier work

Structure (SMILES) | blunting of increase in salivary cortisol levels following a TSST (salivary cortisol levels) | oral bioavailability [1]
CCNC1=Nc2ccc(Cl)cc2C(C)(c2ccccc2)O1 (centres unmarked) [Etifoxine] | does not blunt an increase in salivary cortisol levels | 
CC(=O)[C@H]1CC[C@H]2[C@@H]3CC[C@H]4C[C@H](O)CC[C@]4(C)[C@H]3CC[C@]12C [allopregnanolone] |  | less than 5%
